This data set relates to Mus musculus. As to the kind of experiment: Toxicity in ip dosed mouse assessed as respiratory arrest. It counts as organism-based. The settings on record: in vivo.

On to `C=C1[C@@H]2CCC3[C@@](CC[C@@H]4[C@H](C(=O)O)C[C@@H](O[C@@H]5O[C@H](CO)[C@@H](OS(=O)(=O)[O-])[C@H](OS(=O)(=O)[O-])[C@H]5OC(=O)CC(C)C)C[C@@]34C)(C2)[C@@H]1O.[K+].[K+]` (stereo partly specified) [ATRACTYLOSIDE], for which the Activity entry is “Toxic”.

These data come from ChEMBL document CHEMBL1151636, “Atractyloside, toxic compound from Wedelia glauca” (J Nat Prod, 1984).
